≈ marks a conversion by molar mass, not a printed value. Like-named read-outs stand apart in the source and are kept apart here.

The term solubility denotes how much of the substance goes into solution per volume.

Data set [1] can be described thus: Intracisternal toxicity in rats. In kind it is in vivo, Sprangue-Dawley (Carworth) rats. As to conditions: aqueous solution, two day observation, Litchfield and Wilcoxon. The method, then:
(§1) Toxicity evaluations in accordance with three different techniques were carried out on aqueous solutions of the compounds of Examples I and II. The techniques utilized are described below.
Sprangue-Dawley (Carworth) rats were used. The method used was a variation of the procedure outlined by Melartin et al. (Invest. Rad. 5: 13-21, 1970). After dosing, the animals were housed individually and observed for immediate reactions and periodically for a two day observation period. The LD50 values were calculated according to the method of Litchfield and Wilcoxon (J. of Pharmac. and Exptl. Therap. 96:99-115, 1949).

Data set [2] in a line: Intravenous pyelographic studies in dogs. Type of data set: in vivo. Particulars: dog. As for the experimental part: The compounds of Examples I and II were employed in intravenous pyelographic studies carried out in dogs. At a dosage of 1000 mg.
Data set [3] can be described thus: Acute intravenous toxicity studies in mice. As to conditions: intravenous (lateral tail vein), iodine concentration 28.2%, pH 7.0-7.2, approx. 1 ml./min, seven day observation, Litchfield and Wilcoxon. Type of data set: in vivo, Swiss Albino mice (Charles River). The method, then:
as §1
Swiss Albino mice (Charles River) were dosed in the lateral tail vein with aqueous solutions of the above-noted iodinated compounds having an iodine concentration of 28.2% with a pH of 7.0-7.2. The solutions were injected at the rate of approximately 1 ml./min. […] The LD50 values were calculated by the method of Litchfield and Wilcoxon (J. of Pharmac. and Exptl. Therap. 96: 99-113, 1949).

A further data set is described as follows: Water solubility. Type of data set: physicochemical.
Data set [4] can be described thus: Intracerebral toxicity in mice. As to conditions: aqueous solution, seven day observation, Litchfield and Wilcoxon. Type of data set: in vivo, Swiss Albino mice (Charles River). The method, then: as §1
Swiss Albino mice (Charles River) were used. Fixed volumes of aqueous solutions of the iodinated compounds were injected intracerebrally via a 27 gauge needle (1/4 inch in length) according to the method of Haley et al. (Br. J. of Pharmac. 12:12-15, 1957). The animals were observed immediately following injections and daily throughout a seven day observation period. The LD50 values were calculated by the method of Litchfield and Wilcoxon (J. of Pharmac. and Exptl. Therap. 96:99-113, 1949).

Take `CNC(=O)c1c(I)c(NC(=O)OCC(=O)[C@@H](O)[C@H](O)[C@@H](O)CO)c(I)c(C(=O)N(C)C)c1I` [Example I, 1-[N-(2,4,6-triiodo-3-N,N-dimethylcarbamyl-5-N-methylcarbamyl)carbanilyl]-L-sorbose]: the “LD50 Value, Intracisternal (Rats)” value in data set [1] was 13 mg. I/kg. body wt. Besides, the Pyelographic visualization result in data set [2] (1000 mg. I/kg., five minutes after injection) is “very good contrast of the kidneys, collecting pelvises and urinary bladder”. Further, the “LD50 Value, I.V. (Mice)” value in data set [3] was 3,027 mg. I/kg. body wt. The solubility at 730 h in “Water solubility” (after standing for one month) was 200 mg/mL (≈ 248 mM). In the data set “Water solubility” (initial determination, read-out: Water solubility (initially)), the solubility came out at 1000 mg/mL (≈ 1240 mM). Moreover, in data set [4], the “LD50 Value, Intracerebral (Mice)” value is listed as 1,450 mg. I/kg. body wt.

For `CNC(=O)c1c(I)c(NC(=O)OC[C@@H](O)[C@H](O)[C@H](O)[C@@H](O)C=O)c(I)c(N(C)C(C)=O)c1I` [Example II, 6-[2,4,6-Triiodo-3-(N-methylacetamido)-5-(N-methylcarbamyl)carbanilyl]-D-galactose], the “LD50 Value, Intracisternal (Rats)” value in data set [1] is under 20 mg. I/kg. body wt. For the same compound, the Pyelographic visualization result is recorded as “a better shadow of the kidneys was seen together with partial visualization of the ureters” in data set [2] (155 mg. I/kg., five minutes after injection) and “visualization of the kidneys” in data set [2] (155 mg. I/kg., one minute after injection). In data set [3], the “LD50 Value, I.V. (Mice)” value was 2,300 mg. I/kg. body wt. In “Water solubility” (read-out: Water solubility), the solubility was at least 1000 mg/mL. In data set [4], the “LD50 Value, Intracerebral (Mice)” value is listed as 222 mg. I/kg. body wt.

Source of the values: patent US4230845A, “Polyhydroxy-alkyl-3,5-disubstituted-2,4,6-triiodocarbanilates” (Mallinckrodt, Inc., priority 1978, dated 1980).
